Laboratory results: the NIST ThermoML archive (doi:10.1016/j.fluid.2008.06.022)

Conditions: Liquid

CCCOCC(C)O (centres undefined) [1-propoxy-2-propanol]
Conditions	vapor or sublimation pressure [kPa]
298.15 K	0.341
303.15 K	0.481
308.15 K	0.672
313.15 K	0.937
318.15 K	1.271
323.15 K	1.707
328.15 K	2.256
333.15 K	2.967
338.15 K	3.839
343.15 K	4.951
348.15 K	6.29
353.15 K	7.963
358.15 K	9.95
363.15 K	12.38
368.15 K	15.27
373.15 K	18.7
378.15 K	22.65
383.15 K	27.42
388.15 K	32.8
393.15 K	39.18
398.15 K	46.38
403.15 K	54.75
408.15 K	64.1
413.15 K	74.98
